Values belong to the molecule of their own block, whether it stands above or below them.
Experiments:
OTRPC4 [1] = molecular target: T1, OTRPC4 (Mus musculus, UniProt Q9EPK8); assay: FURA-2 single cell measurement of intracellular calcium in HEK293 cells transiently expressing OTRPC4-GFP; format: cell-based, murine; conditions: for effect on cells which expressed OTRPC4: 10 μM
T1 construct: expressed in transfected cells; host or cells: HEK293 (transient, FuGENE 6)
Excerpt: The cDNA of OTRPC4 was cloned into a eukaryotic expression plasmid containing, at the C-terminal end, a green fluorescent protein (GFP) fusion section (pEGFP-N1). This plasmid was used for the subsequent expression studies. It can be inferred from the nucleotide sequence that the OTRPC4 protein may consist of 871 amino acids, for example, and contains 6 possible transmembranal segments with a sequence between segments 5 and 6 which possibly codes for a pore region of a channel (FIG. 1a). After transient transfection (which was carried out using the FuGENE 6 transfection reagent) of the expression plasmid coding for the OTRPC4-GFP fusion protein in HEK293 cells, dots of fluorescence could be detected in the plasma membrane 24-36 hours later. […] For the following experiments, HEK293 cells were transiently transfected with the above-mentioned expression plasmid containing OTRPC4 and compared, after 24-36 hours, with untransfected control cells.
The influence of extracellular osmolarity on the channel activity of OTRPC4 was investigated. After reducing the osmolarity of the extracellular solution, there was a long, transient and reversible increase in the [Ca^2+]i in the OTRPC4 expressing cells but not in the control cells (FIG. 5). Increasing the osmolarity of the extracellular solution, on the other hand, reduced the [Ca^2+]i (cf. the small diagram in FIG. 4). A significant change in the [Ca^2+]i was observed even when the extracellular solution was changed by 30 mosmol/l. The changes in [Ca^2+]i triggered by changing the osmolarity of the extracellular solution occurred rapidly and reached a peak after about 30 seconds, but varied from cell to cell (see FIG. 4). After returning to the normoosmolar solution, [Ca^2+]i rapidly returned to its base value. In order to distinguish between an influx of calcium from the extracellular medium and a release of calcium from intracellular calcium stores, calcium was replaced by EGTA in the extracellular medium while the cells were exposed to a hypotonic medium. Under these conditions, the FURA-2 signal returned to the base value (see FIG. 4).
The members of the STRPC subfamily of the TRPC channels are activated by signals produced by the activation of the phospholipase C-β (PCL-β) (6-15).
The addition of capsaicin (10 μM) and resiniferatoxin (10 μM) as well as a brief increase in the temperature to 65° C. had no effect on cells which expressed OTRPC4.

OTRPC4 [2] = molecular target: T1, OTRPC4; assay: FURA-2 measurement of intracellular Ca2+ with luminiscence spectrometer in OTRPC4 transfected HEK293 cells; format: cell-based, murine; conditions: 100 μM; osmolarity lowered from 320 mosmol/l to 220 mosmol/l
Experimental: For testing the function of OTRPC4 transfected HEK293 cells with a further method, intracellular Ca^2+ concentration was measured with FURA-2. The experiments were conducted with luminiscence spectrometer (LS 50 B, Perkin Elmer).
For determining the extent of calcium influx into the cells, maximal intracellular Ca^2+ was induced by lonomycin. This [Ca^2+]i could be reverted to its original value by EGTA. Influx of extracellular calcium via OTRPC4 was demostrated by showing change of the intracellular Ca^2+ concentration by lowering osmolarity by 100 mosmol/l (from 320 mosmol/l to 220 mosmol/l). The hypotonic solution led to an increase in [Ca^2+]i which could be quenched by EGTA. Half of the [Ca^2+] increasing effect of hypotonic solution could be blocked by addition of LOE908 (Embaco A, Romanin C, Birke F W, Kukovetz W R, Groschner K: Inhibition of a store-operated Ca2+ entry pathway in human endothelial cells by the isoquinoline derivative LOE 908. British Journal of Pharmacology (1996) 119 702-706) (100 μM) (FIG. 10).

OTRPC4 [3] = molecular target: T1, OTRPC4; assay: Perforated patch measurement of cation currents triggered by hypotonic solution in OTRPC4-expressing cells; format: cell-based, murine; conditions: 50 μM
Experimental: (§1) Because of the rapid “run-down” of the ion fluxes, the other experiments were carried out using the so-called perforated patch method. Measured in standard extracellular solution, the current-voltage curve, measured by applying voltage ramps, show an outwardly rectifying form with a reverse potential of about 0 mV (FIG. 6). When the Na^+- and Ca^2+-ions were removed from the extracellular solution, the inward flux disappeared and the reverse potential moved into the negative area. The average ion fluxes at −100 and +100 mV measured with the aid of ramp protocols were −12.8±1.1 and +32.2±2.7 pA/pF, respectively (n=17, Cm=9.6±5.5 pF).
(§2) Replacing the extracellular standard solution with a solution which contained 100 mM NaCl and 100 mM mannitol (osmolarity: 320 mosmol/l) shifted Er to a more negative potential (−11.2±1.6 mV, n=14), as might be expected from a current carried by cations when the extracellular sodium concentration is reduced (see FIG. 6). Moreover, the inwardly and outwardly directed current components were reduced (−7.0±0.8 and 22.7±2.7 pA/pF at −100 and 100 mV, respectively) (see FIG. 6). The use of a hypoosmolar solution (215 mosmol/l) led, after a delay of a few seconds (about 18 seconds on average) to an increase in both the inwardly and outwardly directed currents (FIG. 7). This increase reached its maximum after 50 seconds, on average. […]

[4] = test system: chloride channels activated by a change in volume; assay: Perforated patch measurement of currents triggered by hypotonic extracellular solution in control cells; format: cell-based; conditions: 50 μM
Experimental: as §1, §2

T1 sequence (Q9EPK8 whole entry): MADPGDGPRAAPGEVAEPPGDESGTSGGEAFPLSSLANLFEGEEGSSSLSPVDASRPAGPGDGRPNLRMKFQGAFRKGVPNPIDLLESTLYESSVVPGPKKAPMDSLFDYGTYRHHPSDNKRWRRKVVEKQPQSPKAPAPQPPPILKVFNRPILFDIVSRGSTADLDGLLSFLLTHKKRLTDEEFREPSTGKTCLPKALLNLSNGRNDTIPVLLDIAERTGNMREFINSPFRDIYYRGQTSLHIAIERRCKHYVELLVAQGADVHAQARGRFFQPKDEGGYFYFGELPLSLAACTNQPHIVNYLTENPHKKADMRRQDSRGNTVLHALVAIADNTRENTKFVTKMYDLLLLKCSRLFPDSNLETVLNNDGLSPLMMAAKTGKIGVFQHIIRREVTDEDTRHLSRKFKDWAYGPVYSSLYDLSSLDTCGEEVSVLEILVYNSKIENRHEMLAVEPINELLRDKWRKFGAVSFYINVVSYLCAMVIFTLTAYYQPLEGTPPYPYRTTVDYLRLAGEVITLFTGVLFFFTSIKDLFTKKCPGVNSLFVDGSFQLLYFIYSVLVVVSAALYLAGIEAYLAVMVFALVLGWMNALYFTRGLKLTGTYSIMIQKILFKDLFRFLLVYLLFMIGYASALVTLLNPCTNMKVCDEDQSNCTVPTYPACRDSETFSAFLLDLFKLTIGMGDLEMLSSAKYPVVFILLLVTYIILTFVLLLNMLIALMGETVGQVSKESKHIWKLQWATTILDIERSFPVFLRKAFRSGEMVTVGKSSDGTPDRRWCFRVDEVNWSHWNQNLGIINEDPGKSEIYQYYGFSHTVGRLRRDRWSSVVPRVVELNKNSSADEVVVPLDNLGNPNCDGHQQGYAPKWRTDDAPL

SMILES: [Cl][Gd]([Cl])[Cl] [GdCl3]
effect on the influx of calcium into OTRPC4-expression cells triggered by hypoosmolarity (OTRPC4 [1]; 1 mM, HEK293 cells expressing OTRPC4): no effect

SMILES: COc1cc2c(cc1OC)C(C(C(=O)N(CCc1ccc(OC)c(OC)c1OC)CCc1ccc(OC)c(OC)c1OC)c1ccccc1)=NCC2 (centres unmarked) [LOE908]
block of the [Ca2+] increasing effect of hypotonic solution (OTRPC4 [2]): Half

SMILES: [Cl][La]([Cl])[Cl] [LaCl3]
inhibition of the influx of calcium into OTRPC4-expression cells triggered by hypoosmolarity (OTRPC4 [1]; 100 μM, HEK293 cells expressing OTRPC4): about 50%

SMILES: O=C(O)c1cc([N+](=O)[O-])ccc1NCCCc1ccccc1 [NPPB]
cation currents in OTRPC4-expressing cells triggered by hypotonic solution (OTRPC4 [3]): unaffected | activation of currents triggered by hypotonic extracellular solution in control cells [4]: inhibited completely

effect on cells which expressed OTRPC4 (OTRPC4 [1]): no effect
SMILES: COc1cc(CNC(=O)CCCC/C=C/C(C)C)ccc1O [capsaicin]

SMILES: C=C(C)[C@]12C[C@@H](C)[C@@]34O[C@](Cc5ccccc5)(O[C@@H]1[C@@H]3C=C(COC(=O)Cc1ccc(O)c(OC)c1)C[C@]1(O)C(=O)C(C)=C[C@@H]41)O2 [resiniferatoxin]
effect on cells which expressed OTRPC4 (OTRPC4 [1]): no effect

SMILES: C/C=C(/C)C(=O)O[C@H]1C(C)=C2[C@H]([C@@H]1OC(=O)CCCCCCC)[C@@](C)(OC(C)=O)C[C@H](OC(=O)CCC)[C@@]1(O)[C@H]2OC(=O)[C@@]1(C)O [thapsigargin]
amplitude of the FURA-2 signal triggered by the hypotonic medium after emptying the intracellular stores (OTRPC4 [1]; 5 μM, added previously, OTRPC4-expressing cells): did not alter the amplitude

From US20030120049A1, “Non-selective cation channel” (priority 2000, published 2003)
